“And” between values parts separate entries of the source, which are not always exact repeats. Identical values can stand only once.
Assays:
[1] = system: Cupriavidus metallidurans CML2; assay type: cell-based; settings: for MIC: lowest concentration of heavy metal inhibiting growth of CML2
Description: Note that the MIC values refer to the lowest concentration of each heavy metal required to inhibit the growth of Cupriavidus metallidurans CML2.

[2] = system: rice seedling; test: Rice seedling root and shoot growth; assay type: in vivo; settings: 14-day cultivation, cadmium alone
Description: FIG. 7A-7C are schematic diagrams illustrating an effect of Cupriavidus metallidurans CML2 inoculation on rice seedling growth and cadmium remediation. FIG. 7A illustrates the effects of Cupriavidus metallidurans CML2 on rice seedling morphology; FIG. 7B illustrates the effects of Cupriavidus metallidurans CML2 on relative lengths of the root and shoot under different conditions. C: control, treated with sterile NB medium; CML2: treated with strain CML2; Cd: treated with Cd^2+; CML2+Cd: treated with both CML2 and Cd^2+; FIG. 7C illustrates the effects of Cupriavidus metallidurans CML2 on cadmium accumulation in rice seedling roots and shoots; data represents means±SEM; different letters (a or b) above the columns indicate significant differences between the three groups using one-way ANOVA at P<0.05; “***” indicates statistically significant differences according to a t-test, P<0.001.
To assess the impact of strain CML2 as a facilitator for plant growth and a cadmium remediation agent, Embodiment 8 conducted an analysis on the relative lengths of rice roots and shoots as well as cadmium concentrations, under different treatments: control, Cupriavidus metallidurans CML2 (CML2), cadmium (Cd), and CML2+Cd (Simultaneous treatment with cadmium and CML2). The control group (C) consisted of rice plants cultured in a sterile nutrient solution.

Compound | tolerance of CML2 to heavy metal [1] | MIC [1] [mM] | inhibition of rice root and shoot growth compared to control [2]
[Cd+2] [Cadmium (Cd^2+), Cadmium] | 13 mM and 2400 mg/L | 13.1 | approximately 89%
[Cu+2] [Copper (Cu^2+), Copper] |  | 2.0 | 
[Mn+2] [Manganese (Mn^2+), Manganese] | 110 mM | 110 | 
[Ni+2] [Nickel (Ni^2+), Nickel] |  | 2.5 | 
[Se+4] [Selenium (Se^4+), Selenium] |  | 45 | 
[Zn+2] [Zinc (Zn^2+), Zinc] |  | 20 | 
Mercury [Mercury (Hg^2+)] | 0.03 mM | 0.03 | 
